# Reference: patent US12503485B2, “Human aminosterol ENT-03 compounds, related compositions comprising the same, and methods of using the same” (Enterin, Inc., priority 2019, dated 2025)
# Tests used:
# [1] = Weight gain in growing male mice; assay type: in vivo; details: growing male mice about 25 g, similar dosing regimen
# Description: In a second experiment, growing male mice, about 25 grams, were administered either compound following a similar dosing regimen. As in the previous experiment, both compounds affected weight gain.
# [2] = Weight loss in male Swiss Webster mice, i.p. dosing; assay type: in vivo; details: male Swiss Webster mice about 50 g, i.p. 10 mg/kg every other day; for loss of starting body weight: by 27 days
# Source text: Food was provided ad lib.
# [3] = molecular target: T1, PTPN6/SHP1 (Homo sapiens, UniProt P29350); assay: Phosphatase assay PTPN6/SHP1; assay type: biochemical; details: for IC50: Table 2B, read-out: Compound IC50 (M) PTPN6/SHP1
# T1 construct: purchased Recation Biology Inc
# T1 sequence (P29350 whole entry): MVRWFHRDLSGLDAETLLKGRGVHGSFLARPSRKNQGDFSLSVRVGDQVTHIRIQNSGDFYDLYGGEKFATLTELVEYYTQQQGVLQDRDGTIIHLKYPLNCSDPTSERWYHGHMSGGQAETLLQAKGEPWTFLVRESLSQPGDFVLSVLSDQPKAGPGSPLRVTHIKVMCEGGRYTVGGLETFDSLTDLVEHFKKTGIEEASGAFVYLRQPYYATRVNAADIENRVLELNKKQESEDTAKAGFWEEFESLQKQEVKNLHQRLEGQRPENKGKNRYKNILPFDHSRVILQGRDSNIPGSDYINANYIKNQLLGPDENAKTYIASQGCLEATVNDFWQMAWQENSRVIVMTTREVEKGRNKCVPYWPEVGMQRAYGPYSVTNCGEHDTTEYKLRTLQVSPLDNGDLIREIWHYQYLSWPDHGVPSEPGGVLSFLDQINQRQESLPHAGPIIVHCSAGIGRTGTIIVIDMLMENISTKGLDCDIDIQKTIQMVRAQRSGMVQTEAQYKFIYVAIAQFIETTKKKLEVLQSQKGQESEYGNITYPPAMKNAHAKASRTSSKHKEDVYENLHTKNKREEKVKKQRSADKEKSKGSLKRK
# [4] = molecular target: T2, PTPRC/CD45 (Homo sapiens, UniProt P08575); assay: Phosphatase assay PTPRC/CD45; assay type: biochemical
# T2 construct: purchased Recation Biology Inc
# T2 sequence (P08575 26-1306): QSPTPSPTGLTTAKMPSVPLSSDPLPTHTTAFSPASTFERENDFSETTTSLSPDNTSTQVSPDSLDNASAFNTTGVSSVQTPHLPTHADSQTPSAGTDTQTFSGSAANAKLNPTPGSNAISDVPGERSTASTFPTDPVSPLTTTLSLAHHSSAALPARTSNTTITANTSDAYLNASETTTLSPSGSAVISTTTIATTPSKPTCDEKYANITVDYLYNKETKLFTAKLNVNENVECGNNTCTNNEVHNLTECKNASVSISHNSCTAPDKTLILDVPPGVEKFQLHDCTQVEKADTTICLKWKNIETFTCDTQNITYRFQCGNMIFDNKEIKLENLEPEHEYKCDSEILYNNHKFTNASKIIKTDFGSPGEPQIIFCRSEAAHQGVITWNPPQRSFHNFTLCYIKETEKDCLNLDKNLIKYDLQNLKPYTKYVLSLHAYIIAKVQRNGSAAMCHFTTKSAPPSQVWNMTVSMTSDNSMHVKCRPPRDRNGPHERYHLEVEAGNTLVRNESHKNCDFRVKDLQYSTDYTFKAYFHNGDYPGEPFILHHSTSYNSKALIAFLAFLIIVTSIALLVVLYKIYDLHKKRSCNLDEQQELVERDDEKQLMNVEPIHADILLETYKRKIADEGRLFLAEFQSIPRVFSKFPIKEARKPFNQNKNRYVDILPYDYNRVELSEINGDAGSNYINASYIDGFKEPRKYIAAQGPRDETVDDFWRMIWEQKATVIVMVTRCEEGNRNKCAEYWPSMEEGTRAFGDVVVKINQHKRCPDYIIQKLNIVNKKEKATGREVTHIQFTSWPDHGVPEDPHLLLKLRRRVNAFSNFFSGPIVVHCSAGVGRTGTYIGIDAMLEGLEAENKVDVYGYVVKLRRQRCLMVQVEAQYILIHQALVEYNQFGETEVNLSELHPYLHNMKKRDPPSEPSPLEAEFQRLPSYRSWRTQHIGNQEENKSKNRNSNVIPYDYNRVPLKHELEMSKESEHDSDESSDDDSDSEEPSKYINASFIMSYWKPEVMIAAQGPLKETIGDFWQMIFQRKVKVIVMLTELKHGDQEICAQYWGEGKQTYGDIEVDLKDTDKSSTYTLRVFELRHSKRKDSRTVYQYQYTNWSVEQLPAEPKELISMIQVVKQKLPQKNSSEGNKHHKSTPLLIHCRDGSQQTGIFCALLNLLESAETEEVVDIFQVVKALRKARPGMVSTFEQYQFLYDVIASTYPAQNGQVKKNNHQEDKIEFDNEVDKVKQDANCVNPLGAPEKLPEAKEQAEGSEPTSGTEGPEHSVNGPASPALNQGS
# [5] = molecular target: T3, PTPN2/TC-PTP (Homo sapiens, UniProt P17706); assay: Phosphatase assay PTPN2/TC-PTP; assay type: biochemical; details: for IC50: Table 2C, read-out: Compound IC50 (M) PTPN2/TC-PTP
# T3 construct: purchased Recation Biology Inc
# T3 sequence (P17706 1-415): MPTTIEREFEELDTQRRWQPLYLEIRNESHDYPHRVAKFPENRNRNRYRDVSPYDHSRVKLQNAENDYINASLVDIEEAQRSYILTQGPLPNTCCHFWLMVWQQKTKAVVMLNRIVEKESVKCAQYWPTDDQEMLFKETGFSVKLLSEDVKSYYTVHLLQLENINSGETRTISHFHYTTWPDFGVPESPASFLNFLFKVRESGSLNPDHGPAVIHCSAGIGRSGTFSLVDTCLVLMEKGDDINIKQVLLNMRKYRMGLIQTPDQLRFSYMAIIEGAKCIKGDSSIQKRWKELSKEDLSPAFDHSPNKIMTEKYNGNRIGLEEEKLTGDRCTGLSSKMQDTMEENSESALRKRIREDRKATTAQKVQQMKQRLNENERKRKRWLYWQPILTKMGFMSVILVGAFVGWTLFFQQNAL
# [6] = molecular target: T4, PP1B (Homo sapiens, UniProt P62140); assay: Phosphatase assay PP1B (DiFMUP fluorescence); assay type: biochemical; details: for IC50: Table 2B, read-out: Compound IC50 (M) PP1B
# T4 construct: purchased Recation Biology Inc
# T4 sequence (P62140 whole entry): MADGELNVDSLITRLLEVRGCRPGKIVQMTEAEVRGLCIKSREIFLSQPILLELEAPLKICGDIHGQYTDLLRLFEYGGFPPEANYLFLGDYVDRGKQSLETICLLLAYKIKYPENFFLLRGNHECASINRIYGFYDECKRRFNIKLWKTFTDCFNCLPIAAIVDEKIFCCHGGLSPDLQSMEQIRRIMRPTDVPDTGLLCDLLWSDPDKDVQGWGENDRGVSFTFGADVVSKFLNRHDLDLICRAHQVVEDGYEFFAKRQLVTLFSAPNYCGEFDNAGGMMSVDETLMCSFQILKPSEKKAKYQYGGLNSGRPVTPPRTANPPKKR
# [7] = molecular target: T5, PP1A (Homo sapiens, UniProt P62136); assay: Phosphatase assay PP1A (DiFMUP fluorescence); assay type: biochemical; details: for IC50: Table 2B, read-out: Compound IC50 (M) PP1A
# T5 construct: purchased Recation Biology Inc
# T5 sequence (P62136 whole entry): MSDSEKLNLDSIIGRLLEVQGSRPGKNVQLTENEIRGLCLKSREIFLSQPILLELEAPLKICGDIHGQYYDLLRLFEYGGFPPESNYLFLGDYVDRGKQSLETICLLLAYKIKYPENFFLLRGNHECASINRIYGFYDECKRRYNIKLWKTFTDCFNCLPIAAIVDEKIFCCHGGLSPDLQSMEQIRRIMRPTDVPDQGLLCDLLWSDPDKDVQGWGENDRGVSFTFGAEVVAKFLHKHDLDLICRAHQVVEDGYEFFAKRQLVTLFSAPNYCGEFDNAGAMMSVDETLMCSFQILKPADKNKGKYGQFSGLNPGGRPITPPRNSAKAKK
# [8] = molecular target: T6, PTPN11/SHP2-FL (E76K) (Homo sapiens, UniProt Q06124, E76K); assay: Phosphatase assay PTPN11/SHP2-FL (E76K)
# T6 sequence (Q06124 2-597 isoform Q06124-1 E76K): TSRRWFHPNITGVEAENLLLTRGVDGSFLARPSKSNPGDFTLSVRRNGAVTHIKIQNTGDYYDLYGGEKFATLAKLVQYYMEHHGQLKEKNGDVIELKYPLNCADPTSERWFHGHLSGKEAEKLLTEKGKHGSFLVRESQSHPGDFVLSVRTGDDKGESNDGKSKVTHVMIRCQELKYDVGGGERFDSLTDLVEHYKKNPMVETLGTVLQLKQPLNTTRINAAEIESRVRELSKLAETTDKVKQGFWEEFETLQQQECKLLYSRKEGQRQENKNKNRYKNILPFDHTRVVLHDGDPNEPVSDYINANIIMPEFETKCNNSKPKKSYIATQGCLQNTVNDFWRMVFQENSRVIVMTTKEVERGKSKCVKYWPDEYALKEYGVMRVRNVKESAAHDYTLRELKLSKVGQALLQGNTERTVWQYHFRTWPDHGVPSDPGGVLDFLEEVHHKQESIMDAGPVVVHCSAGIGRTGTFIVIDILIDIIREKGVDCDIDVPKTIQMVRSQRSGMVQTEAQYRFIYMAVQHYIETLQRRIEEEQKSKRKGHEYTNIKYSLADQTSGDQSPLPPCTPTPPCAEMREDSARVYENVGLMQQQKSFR
# [9] = Weight loss in C57bl/6 male mice, once weekly dosing; assay type: in vivo
# [10] = intraperitoneal 3, 5, 10 mg/kg once weekly over 2 weeks
# [11] = intraperitoneal once weekly over 6 weeks
compound,measurement,setting,value
"CC(C)[C@@H](CC[C@@H](C)[C@H]1CC[C@H]2[C@@H]3[C@H](O)C[C@H]4C[C@@H](NCCCNCCCCNCCCN)CC[C@]4(C)[C@H]3CC[C@]12C)OS(=O)(=O)O (single isomer, unassigned) [ENT-02, trodusquemine]","effect on growth, in words",[1],suppressed growth
same,"effect on weight, in words",[2],more severe decline
same,nadir of weight,[2],~16 days
same,recovery to the starting weight,[2],~45 days
same,loss of starting body weight,[2],about 10%
same,"activity at PTPN6/SHP1, in words",[3],Neither compound inhibits
same,IC50,[3],> 0.0001 M
same,"activity on PTPRC/CD45, in words",[4],target
same,IC50,[5],> 0.0001 M
same,IC50,[6],> 0.0001 M
same,IC50,[7],> 0.0001 M
same,"inhibition of PTPN11 (E76K), in words",[8],potently inhibit
"CC(CCCC(C)C1CCC2C3C(O)CC4CC(NCCCNCCCCNCCCN)CCC4(C)C3CCC12C)C(=O)O (single isomer, unassigned; ent-03) [ENT-03, 3-β-Spermino-7α-hydroxy-5α-cholestanoic acid]","effect on growth, in words",[1],continued normal growth
same,"effect on weight, in words",[2],weight loss
same,nadir of weight,[2],~16 days
same,recovery to the starting weight,[2],~45 days
same,loss of starting body weight,[2],about 10%
same,IC50,[3],> 0.0001 M
same,"activity on PTPRC/CD45, in words",[4],target
same,IC50,"[4]; Table 2B, read-out: Compound IC50 (M) PTPRC/CD45",5.71e-07 M
same,"activity at PTPN2, in words",[5],inactive
same,IC50,[5],> 0.0001 M
same,"activity at PP1B, in words",[6],inactive
same,IC50,[6],> 0.0001 M
same,"activity at PP1A, in words",[7],inactive
same,IC50,[7],> 0.0001 M
same,"inhibition of PTPN11 (E76K), in words",[8],potently inhibit
same,clinical appearance of treated animals,[9]; [10],clinically normal
same,"weight loss, in words",[9]; [10],dose dependent weight loss
same,clinical appearance of treated animals,[9]; [11],clinically normal
same,"weight loss, in words",[9]; [11],dose dependent weight loss
